Assay results from US20040023922A1, “Lipids for modulating immune response” (priority 2000, published 2004).
Where two headings read alike, the source gives them in different places.

What was measured:
Female Balb/c mice = assay: Adjuvanticity of lipids: serum anti-KLH IgA, IgG, IgM ELISA (Example 7); type: in vivo; conditions: for Day 7 Results IgA, score as multiples of the control response / Day 7 Results IgG, score as multiples of the control response / Day 7 Results IgM, score as multiples of the control response: serum day 7 after booster; for Day 7 Results IgA, score as multiples of the control response: 5 μl lipid + 45 μl saline + 50 μl KLH (2 mg/ml), week 0 and week 2; for Day 7 Results IgA, score as multiples of the control response / Day 7 Results IgG, score as multiples of the control response / Day 7 Results IgM, score as multiples of the control response / Day 21 Results IgA, score as multiples of the control response / Day 21 Results IgG, score as multiples of the control response / Day 21 Results IgM, score as multiples of the control response: control KLH + Saline = 1; for Day 21 Results IgA, score as multiples of the control response / Day 21 Results IgG, score as multiples of the control response / Day 21 Results IgM, score as multiples of the control response: serum day 21 after booster; for Ranking Total: sum of the six IgA, IgG, IgM scores of day 7 and day 21, control KLH + Saline = 6
Experimental: The objective of this study was to investigate the adjuvanticity of 19 different lipids.
Female Balb/c mice, 6-8 weeks and weighing about 20-22 gms were used and maintained on a normal mouse diet throughout the study.
There were 22 groups of mice marked alphabetically from A-V. Group A (8 mice) was the negative control (KLH+Saline), Group B (8 mice) was the positive control (KLH+IFA). Groups C-V were the experimental groups containing 6 mice each. 100 μl of antigen preparation comprising of 5 μl lipid+45 μl saline+50 μl (2 mg/ml KLH) was administered to 20 groups of 6 mice each, on week 0 followed by a boost on week 2.
On day 7 and day 21 after the booster dose, the mice were tail bled, the serum separated, aliquoted and stored at 4° C.
The specific anti-KLH IgG and IgM antibody content of each individual serum sample was determined in an established ELISA assay and standardised against a positive control antiserum obtained by hyperimmunisation of mice with KLH (100 μg) in Freund's incomplete adjuvant. Plates were coated with KLH at 2 μg/ml and incubated with four twofold dilutions of samples (100 μl) at 37° C. for 2 hours. The initial dilution of serum samples was 1:50 for IgA assay and 1:100 for IgG and IgM assays. […] IgA and IgM were used at 1:1000 and IgG at 1:2000 for 2 hours at 37° C. The results were expressed as antibody units calculated from the standard curve obtained from pooled immune mouse serum given an arbitrary antibody value of 100,000 IgA units/ml and 1×10^6 IgG and IgM units/ml. The standard curve was diluted from 1:100 to 1:3200 for IgA, 1:4000 to 1:256,000 for IgG and 1:1000 to 1:32000 for IgM samples. The value for each sample dilution falling on standard curve was calculated and the mean taken as the value for the sample.
Results are given in the form of histograms (FIGS. 9 to 14), plotting the Ig response (units/ml) against the trial grouping. […] The number signifies multiples of the control response.

mesenteric lymph nodes = type: in vivo, mice

SMILES	Day 7 Results IgA, score as multiples of the control response (Female Balb/c mice)	Day 7 Results IgG, score as multiples of the control response (Female Balb/c mice)	Day 7 Results IgM, score as multiples of the control response (Female Balb/c mice)	Day 21 Results IgA, score as multiples of the control response (Female Balb/c mice)	Day 21 Results IgG, score as multiples of the control response (Female Balb/c mice)	Day 21 Results IgM, score as multiples of the control response (Female Balb/c mice)	Ranking Total (Female Balb/c mice)	Proliferative cellular response of mesenteric lymph nodes to KLH compared to control (FIG. 15) (mesenteric lymph nodes; 40 μg on SiO2 particles in 0.2 ml PBS per mouse per day intragastrically, days 1-3, KLH + cholera toxin days 7 and 14, killed day 21, control KLH+CT)	Proliferative cellular response of mesenteric lymph nodes to KLH compared to control (FIG. 15) (mesenteric lymph nodes; mouse, in vivo)
CCCCCCCCCCCCCCCC(=O)OCC(COC(=O)CCCCCCCCCCCCC)OC(=O)CCCCCCCCCCCCCCC (racemic) [DPM, 1,2 Diplamitoyl-3-myristoyl-rac-glycerol]	16	3	1	2	7	2	31		
CC/C=C\C/C=C\C/C=C\CCCCCCCC(=O)OCC(COC(=O)CCCCCCC/C=C\C/C=C\C/C=C\CC)OC(=O)CCCCCCC/C=C\C/C=C\C/C=C\CC [Trilinolenin]								strong proliferative response	
CCCCCCCC/C=C\CCCCCCCC(=O)OC[C@H](COP(=O)([O-])OCC[N+](C)(C)C)OC(=O)CCCCCCC/C=C\CCCCCCCC [Phosphatidycholine, dioleoyl, Phosphatidylcholine, dioleoyl]									strong proliferative response
CCCCCCCCCCCCCCCC(=O)N[C@@H](CO[C@@H]1O[C@H](CO)[C@@H](O)[C@H](O)[C@H]1O)[C@H](O)CCCCCCCCCCCCCCC [PC, N-Palmitoyl dihydroglucocerebroside]	33	2	3	3	12	3	56		
